Measured values: ChEMBL document CHEMBL1201862, “PubChem BioAssay data set” (2004)
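48-hour exposure; five concentrations; linearly interpolated endpoints. Here, GI50 denotes the concentration required for 50% inhibition of growth.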 Activity calls are given as the source filed them. Rule as the data show it: active = GI50 up to about 1.1 µM and inactive = higher.

How the values were obtained:
Test in all cases: inhibition of tumour cell growth, NCI panel, 48 h
SW-620 = system: SW-620
PC-3 = system: PC-3
SK-MEL-2 = system: SK-MEL-2
NCI-H226 = system: NCI-H226
SNB-75 = system: SNB-75
COLO 205 = system: COLO 205
OVCAR-5 = system: OVCAR-5
A549 = system: A549
A498 = system: A498
OVCAR-4 = system: OVCAR-4
LOX IMVI = system: LOX IMVI
KM12 = system: KM12
T47D = system: T47D
OVCAR-3 = system: OVCAR-3
RPMI-8226 = system: RPMI-8226
SF-539 = system: SF-539
K562 = system: K562
HCT-116 = system: HCT-116
UO-31 = system: UO-31

| SMILES | GI50 (SW-620) | GI50 (PC-3) | GI50 (SK-MEL-2) | GI50 (NCI-H226) | GI50 (SNB-75) | GI50 (COLO 205) | GI50 (OVCAR-5) | GI50 (A549) | GI50 (A498) | GI50 (OVCAR-4) | GI50 (LOX IMVI) | GI50 (KM12) | GI50 (T47D) | GI50 (OVCAR-3) | GI50 (RPMI-8226) | GI50 (SF-539) | GI50 (K562) | GI50 (HCT-116) | GI50 (UO-31) |
| --- | --- | --- | --- | --- | --- | --- | --- | --- | --- | --- | --- | --- | --- | --- | --- | --- | --- | --- | --- |
| COc1nc2ccc(CNc3ccc(C(=O)O)cc3)cc2nc1OC | > 10 µM (inactive) | > 10 µM (inactive) | > 10 µM (inactive) | > 10 µM (inactive) | > 10 µM (inactive) | > 10 µM (inactive) | > 10 µM (inactive) | > 10 µM (inactive) | > 10 µM (inactive) | > 10 µM (inactive) | > 10 µM (inactive) | > 10 µM (inactive) | > 10 µM (inactive) | > 10 µM (inactive) | > 10 µM (inactive) | > 10 µM (inactive) | > 10 µM (inactive) | > 10 µM (inactive) |  |
| CSC1=C(C)C(/C=N/Nc2ccc([N+](=O)[O-])cc2)=C(C)N(c2ccccc2)S1(=O)=O | > 100 µM (inactive) | 25.9 µM (inactive) | > 100 µM (inactive) | > 100 µM (inactive) | 38.5 µM (inactive) | 48.2 µM (inactive) | > 100 µM (inactive) | 36.3 µM (inactive) | > 100 µM (inactive) | > 100 µM (inactive) | 19.6 µM (inactive) | 26.5 µM (inactive) | 3.09 µM (inactive) | 25.4 µM (inactive) | 5.07 µM (inactive) | > 100 µM (inactive) | 7.71 µM (inactive) | 6.47 µM (inactive) | 29.3 µM (inactive) |
| N#CCC1C2CC3C(C2=O)C13 (stereo not given) | > 100 µM (inactive) | > 100 µM (inactive) | > 100 µM (inactive) | > 100 µM (inactive) | > 100 µM (inactive) | > 100 µM (inactive) | > 100 µM (inactive) | > 100 µM (inactive) | > 100 µM (inactive) | > 100 µM (inactive) | > 100 µM (inactive) | > 100 µM (inactive) | > 100 µM (inactive) | > 100 µM (inactive) | > 100 µM (inactive) | > 100 µM (inactive) | > 100 µM (inactive) | > 100 µM (inactive) | > 100 µM (inactive) |
| CCCC[N+](CCCC)(CCCC)CCCC.O=S(=O)([O-])ON=C1c2ccccc2-c2ccccc21 | > 100 µM (inactive) | > 100 µM (inactive) | > 100 µM (inactive) | > 100 µM (inactive) | > 100 µM (inactive) | > 100 µM (inactive) | > 100 µM (inactive) | > 100 µM (inactive) | > 100 µM (inactive) | > 100 µM (inactive) | > 100 µM (inactive) | > 100 µM (inactive) | > 100 µM (inactive) | > 100 µM (inactive) | 50.8 µM (inactive) | > 100 µM (inactive) | > 100 µM (inactive) | > 100 µM (inactive) | > 100 µM (inactive) |
| O=c1oc2c(Br)c(O)c(Br)cc2c2ccccc12 | 36.6 µM (inactive) | 21 µM (inactive) | 28.2 µM (inactive) | 27.1 µM (inactive) | 32 µM (inactive) | 29.9 µM (inactive) | 35 µM (inactive) | 32.5 µM (inactive) | 25.8 µM (inactive) | 29.7 µM (inactive) | 23.8 µM (inactive) |  | 25 µM (inactive) | 16.5 µM (inactive) | 27 µM (inactive) | 23.9 µM (inactive) | 23.1 µM (inactive) | 29.4 µM (inactive) |  |
| COc1cc2c(/C=C3/C(=O)Nc4ccccc43)c(Cl)[nH]c2cc1C | 0.0855 µM (active) | 0.0435 µM (active) | 0.082 µM (active) | 0.373 µM (active) | 0.192 µM (active) | 0.0552 µM (active) | 0.129 µM (active) | 0.0619 µM (active) | 0.0632 µM (active) | 0.0521 µM (active) | 0.0631 µM (active) | 0.0329 µM (active) | 13.7 µM (inactive) | 0.0434 µM (active) | 0.0551 µM (active) | 0.0234 µM (active) | 0.0601 µM (active) | 0.0597 µM (active) | 0.0745 µM (active) |
| CCOC(=O)N1CCN(c2c(N)nc(C)nc2O)CC1 | > 100 µM (inactive) | > 100 µM (inactive) | > 100 µM (inactive) | > 100 µM (inactive) | > 100 µM (inactive) | > 100 µM (inactive) | > 100 µM (inactive) | > 100 µM (inactive) | > 100 µM (inactive) | > 100 µM (inactive) | > 100 µM (inactive) | > 100 µM (inactive) | > 100 µM (inactive) | > 100 µM (inactive) | > 100 µM (inactive) | > 100 µM (inactive) | > 100 µM (inactive) | > 100 µM (inactive) | > 100 µM (inactive) |
| CCOC1C=CCCO1 (stereo not given) | > 100 µM (inactive) | > 100 µM (inactive) | > 100 µM (inactive) | > 100 µM (inactive) | > 100 µM (inactive) | > 100 µM (inactive) | > 100 µM (inactive) | > 100 µM (inactive) | > 100 µM (inactive) | > 100 µM (inactive) | > 100 µM (inactive) | > 100 µM (inactive) | 0.701 µM (active) | > 100 µM (inactive) | > 100 µM (inactive) | > 100 µM (inactive) | > 100 µM (inactive) | > 100 µM (inactive) | 2.99 µM (inactive) |
| Cc1c2cccc-2ccc2c1[nH]c1ccc(Br)cc12 | 4.75 µM (inactive) | 4.18 µM (inactive) | 5.62 µM (inactive) | 2.04 µM (inactive) | 2.21 µM (inactive) | 2.06 µM (inactive) | 3.94 µM (inactive) | 4.2 µM (inactive) | 21.8 µM (inactive) | 1.96 µM (inactive) | 4.44 µM (inactive) | 2.47 µM (inactive) | 1.69 µM (inactive) | 3.84 µM (inactive) | 3.15 µM (inactive) | 4.81 µM (inactive) | 2.96 µM (inactive) | 4.85 µM (inactive) | 4.65 µM (inactive) |
| CC(NC(=O)C(Cc1ccc(OC(=O)c2ccccc2)cc1)NC(=O)OC(C)(C)C)C(=O)NCC(=O)NC(Cc1ccccc1)C(=O)NN (stereo not given) | 29.3 µM (inactive) | 24.2 µM (inactive) |  | > 100 µM (inactive) | 25.6 µM (inactive) | 23.8 µM (inactive) | > 100 µM (inactive) | > 100 µM (inactive) | 15 µM (inactive) | 96.8 µM (inactive) | 18.1 µM (inactive) | 80.7 µM (inactive) | 62.8 µM (inactive) | 57.9 µM (inactive) | 15.8 µM (inactive) | > 100 µM (inactive) | 20 µM (inactive) | 43.1 µM (inactive) | > 100 µM (inactive) |
| O=C(c1ccccc1)n1cc(-c2ccccc2)c2c(=O)nc[nH]c21 | > 100 µM (inactive) | > 100 µM (inactive) | > 100 µM (inactive) | > 100 µM (inactive) | 17.4 µM (inactive) | > 100 µM (inactive) | > 100 µM (inactive) | > 100 µM (inactive) | > 100 µM (inactive) | > 100 µM (inactive) | > 100 µM (inactive) | > 100 µM (inactive) | > 100 µM (inactive) | > 100 µM (inactive) | > 100 µM (inactive) | > 100 µM (inactive) |  | > 100 µM (inactive) | > 100 µM (inactive) |
| COc1ccc2nc3ccc(OC)cc3c([S+]([O-])CCCl)c2c1 (stereo not given) | 3.3 µM (inactive) | 11.2 µM (inactive) | 17.7 µM (inactive) | 16.8 µM (inactive) | 17.8 µM (inactive) | 1.77 µM (inactive) | 14.9 µM (inactive) | 20.9 µM (inactive) | 16.8 µM (inactive) | 5.05 µM (inactive) | 2.4 µM (inactive) | 16.6 µM (inactive) | 2.04 µM (inactive) | 2.2 µM (inactive) | 2.11 µM (inactive) | 1.72 µM (inactive) |  | 1.83 µM (inactive) | 2.28 µM (inactive) |
| O=[N+]([O-])c1cc(Cl)cc2cc(Cl)cnc12 | > 100 µM (inactive) | 93.5 µM (inactive) |  | > 100 µM (inactive) | 15.6 µM (inactive) | > 100 µM (inactive) | > 100 µM (inactive) | > 100 µM (inactive) | 48 µM (inactive) | 35.7 µM (inactive) | > 100 µM (inactive) |  | 16.4 µM (inactive) | > 100 µM (inactive) | > 100 µM (inactive) | > 100 µM (inactive) | > 100 µM (inactive) | 95.1 µM (inactive) | > 100 µM (inactive) |
| Cc1ccsc1C(=S)Nc1ccc(Cl)c(/C=N/OC(C)C)c1 | 34.3 µM (inactive) | 80.7 µM (inactive) | 55.1 µM (inactive) | 31.3 µM (inactive) | 48.2 µM (inactive) | 18.7 µM (inactive) | > 100 µM (inactive) | 46.6 µM (inactive) | 64 µM (inactive) | 14.8 µM (inactive) | 29.8 µM (inactive) | 26.4 µM (inactive) | 17.8 µM (inactive) | 44.8 µM (inactive) | 14.7 µM (inactive) | > 100 µM (inactive) |  | 27.4 µM (inactive) | 21.1 µM (inactive) |
| COc1ccc(-c2nc(N)c3ncn(C4OC(CO)C(O)C4O)c3n2)cc1 (stereo not given) | > 100 µM (inactive) | > 100 µM (inactive) | > 100 µM (inactive) | > 100 µM (inactive) | > 100 µM (inactive) | > 100 µM (inactive) | > 100 µM (inactive) | > 100 µM (inactive) | > 100 µM (inactive) | > 100 µM (inactive) | > 100 µM (inactive) | > 100 µM (inactive) | > 100 µM (inactive) | > 100 µM (inactive) | > 100 µM (inactive) | > 100 µM (inactive) | > 100 µM (inactive) | > 100 µM (inactive) |  |
